{"source": "paper PMC12281424", "about": "“A Rac-specific competitive inhibitor of guanine nucleotide binding reduces metastasis in triple-negative breast cancer” (Cell Reports Medicine, 2025)", "key": {"[1]": {"biological_target": "CK2α1(h) (Homo sapiens, UniProt P68400)", "sequence (P68400 whole entry)": "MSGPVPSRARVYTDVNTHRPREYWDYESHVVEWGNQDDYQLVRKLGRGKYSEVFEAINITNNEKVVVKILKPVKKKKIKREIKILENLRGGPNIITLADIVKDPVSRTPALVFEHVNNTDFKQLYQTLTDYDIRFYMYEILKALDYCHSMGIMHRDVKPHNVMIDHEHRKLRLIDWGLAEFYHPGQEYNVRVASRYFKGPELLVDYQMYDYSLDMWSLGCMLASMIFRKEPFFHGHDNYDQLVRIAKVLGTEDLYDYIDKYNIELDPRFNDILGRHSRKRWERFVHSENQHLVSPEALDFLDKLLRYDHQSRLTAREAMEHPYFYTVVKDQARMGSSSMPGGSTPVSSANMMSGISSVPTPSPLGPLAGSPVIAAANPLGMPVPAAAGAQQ", "assay": "Kinase Profiler", "assay_type": "biochemical", "experimental": "(§1) The kinase profiler was performed by the company Eurofins (Discovery, Panlab and Cerep)."}, "[2]": {"biological_target": "Rsk2(h) (Homo sapiens, UniProt P51812)", "assay": "Kinase Profiler", "assay_type": "biochemical", "experimental": "as §1"}, "[3]": {"biological_target": "Progesterone PR-B (Homo sapiens, UniProt P06401)", "sequence (P06401 whole entry)": "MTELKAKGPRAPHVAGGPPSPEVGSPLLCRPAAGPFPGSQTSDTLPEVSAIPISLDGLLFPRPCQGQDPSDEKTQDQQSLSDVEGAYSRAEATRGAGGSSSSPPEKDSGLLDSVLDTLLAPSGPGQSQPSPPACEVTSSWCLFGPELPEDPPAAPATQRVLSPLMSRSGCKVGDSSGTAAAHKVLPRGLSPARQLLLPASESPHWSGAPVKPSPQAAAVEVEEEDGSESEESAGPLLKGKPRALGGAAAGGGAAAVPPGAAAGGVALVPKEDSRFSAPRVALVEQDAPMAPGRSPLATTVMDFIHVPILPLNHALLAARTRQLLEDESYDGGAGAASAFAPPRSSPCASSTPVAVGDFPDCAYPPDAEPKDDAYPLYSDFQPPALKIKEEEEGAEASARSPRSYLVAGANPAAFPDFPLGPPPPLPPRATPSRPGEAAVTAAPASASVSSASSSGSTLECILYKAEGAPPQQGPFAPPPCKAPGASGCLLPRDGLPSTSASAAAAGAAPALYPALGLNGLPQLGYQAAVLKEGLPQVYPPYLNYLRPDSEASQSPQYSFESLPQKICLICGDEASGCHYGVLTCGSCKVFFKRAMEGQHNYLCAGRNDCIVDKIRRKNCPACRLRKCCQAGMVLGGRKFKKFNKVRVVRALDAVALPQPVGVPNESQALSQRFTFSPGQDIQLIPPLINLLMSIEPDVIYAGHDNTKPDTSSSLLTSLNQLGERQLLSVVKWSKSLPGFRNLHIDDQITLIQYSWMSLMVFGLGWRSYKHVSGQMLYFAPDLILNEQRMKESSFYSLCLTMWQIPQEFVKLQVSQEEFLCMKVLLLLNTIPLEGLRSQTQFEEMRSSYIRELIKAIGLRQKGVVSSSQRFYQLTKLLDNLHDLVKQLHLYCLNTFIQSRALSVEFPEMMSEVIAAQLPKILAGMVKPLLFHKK", "assay": "Safety screen", "assay_type": "binding", "experimental": "(§2) Blood cell counts, kinase profiler, safety screen, bacterial cytotoxicity, Ames, micronucleus assays were performed by the company Eurofins (France). The kinase profiler was performed by the company Eurofins (Discovery, Panlab and Cerep)."}, "[4]": {"biological_target": "PI3K (p110a(E545K)/p85a)(h) (Homo sapiens, UniProt P42336, E545K)", "sequence (P42336 whole entry E545K)": "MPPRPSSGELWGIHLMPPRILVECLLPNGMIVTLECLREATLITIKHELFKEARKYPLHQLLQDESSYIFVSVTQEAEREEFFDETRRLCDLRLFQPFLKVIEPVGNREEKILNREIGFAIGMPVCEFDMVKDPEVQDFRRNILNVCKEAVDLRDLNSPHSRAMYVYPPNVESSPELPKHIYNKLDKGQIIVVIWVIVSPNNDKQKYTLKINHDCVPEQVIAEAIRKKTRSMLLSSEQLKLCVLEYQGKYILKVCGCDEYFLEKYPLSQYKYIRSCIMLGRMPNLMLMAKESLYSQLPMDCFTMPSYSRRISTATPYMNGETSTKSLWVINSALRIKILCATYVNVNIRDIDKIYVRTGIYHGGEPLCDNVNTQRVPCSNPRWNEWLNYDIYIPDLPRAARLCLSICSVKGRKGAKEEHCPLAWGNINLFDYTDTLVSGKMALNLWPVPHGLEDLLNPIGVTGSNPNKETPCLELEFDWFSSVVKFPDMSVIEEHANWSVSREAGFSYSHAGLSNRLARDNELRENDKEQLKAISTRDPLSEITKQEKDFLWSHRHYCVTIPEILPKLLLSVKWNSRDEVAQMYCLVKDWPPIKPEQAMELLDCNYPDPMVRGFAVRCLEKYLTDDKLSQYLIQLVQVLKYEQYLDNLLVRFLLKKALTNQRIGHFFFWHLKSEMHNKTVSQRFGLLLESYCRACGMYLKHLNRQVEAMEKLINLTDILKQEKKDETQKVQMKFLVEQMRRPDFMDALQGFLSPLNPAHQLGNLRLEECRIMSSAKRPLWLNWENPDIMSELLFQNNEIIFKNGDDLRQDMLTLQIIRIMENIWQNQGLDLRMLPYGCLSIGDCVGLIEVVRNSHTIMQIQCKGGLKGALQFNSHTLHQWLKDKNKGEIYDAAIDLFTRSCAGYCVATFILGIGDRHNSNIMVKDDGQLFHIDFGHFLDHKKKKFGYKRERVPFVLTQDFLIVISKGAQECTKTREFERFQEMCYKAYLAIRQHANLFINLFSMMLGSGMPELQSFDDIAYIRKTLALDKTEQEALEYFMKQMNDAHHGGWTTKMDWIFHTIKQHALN", "sequence (P27986 whole entry partner)": "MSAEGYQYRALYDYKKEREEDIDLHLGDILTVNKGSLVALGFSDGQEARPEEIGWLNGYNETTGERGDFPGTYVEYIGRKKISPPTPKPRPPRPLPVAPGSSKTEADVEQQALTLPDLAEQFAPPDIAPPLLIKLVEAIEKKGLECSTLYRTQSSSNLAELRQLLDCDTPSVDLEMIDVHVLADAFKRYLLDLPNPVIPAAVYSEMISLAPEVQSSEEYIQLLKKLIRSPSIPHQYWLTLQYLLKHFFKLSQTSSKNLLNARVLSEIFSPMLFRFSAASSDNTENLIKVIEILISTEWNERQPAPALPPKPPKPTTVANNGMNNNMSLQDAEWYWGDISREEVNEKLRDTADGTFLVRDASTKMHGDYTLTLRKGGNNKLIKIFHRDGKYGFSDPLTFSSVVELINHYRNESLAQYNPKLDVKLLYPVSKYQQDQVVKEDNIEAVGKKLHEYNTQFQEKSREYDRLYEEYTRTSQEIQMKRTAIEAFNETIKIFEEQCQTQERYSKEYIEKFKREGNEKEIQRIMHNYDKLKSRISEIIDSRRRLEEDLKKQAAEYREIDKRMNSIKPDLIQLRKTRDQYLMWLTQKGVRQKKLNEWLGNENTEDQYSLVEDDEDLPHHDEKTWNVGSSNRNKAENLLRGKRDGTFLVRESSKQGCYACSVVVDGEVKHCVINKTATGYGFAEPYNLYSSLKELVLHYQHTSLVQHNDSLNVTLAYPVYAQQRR", "assay": "Kinase Profiler", "assay_type": "biochemical", "experimental": "as §1"}, "[5]": {"test_system": "PI3K (p110a/p65a)(m)", "assay": "Kinase Profiler", "assay_type": "biochemical, mouse", "experimental": "as §2"}, "[6]": {"biological_target": "PIP4K2a(h) (Homo sapiens, UniProt P48426)", "sequence (P48426 whole entry)": "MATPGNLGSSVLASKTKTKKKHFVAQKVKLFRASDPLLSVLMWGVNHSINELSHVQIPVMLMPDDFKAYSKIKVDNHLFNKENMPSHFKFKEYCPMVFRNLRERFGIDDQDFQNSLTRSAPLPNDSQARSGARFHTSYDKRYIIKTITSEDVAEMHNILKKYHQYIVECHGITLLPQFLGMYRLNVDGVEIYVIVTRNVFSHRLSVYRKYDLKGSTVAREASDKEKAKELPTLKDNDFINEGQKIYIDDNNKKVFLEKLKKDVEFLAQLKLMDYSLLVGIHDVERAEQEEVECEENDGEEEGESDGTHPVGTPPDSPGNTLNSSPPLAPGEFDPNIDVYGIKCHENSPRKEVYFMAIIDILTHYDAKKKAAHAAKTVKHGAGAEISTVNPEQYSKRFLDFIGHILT", "assay": "Kinase Profiler", "assay_type": "biochemical", "experimental": "as §1"}, "[7]": {"test_system": "TA98", "assay": "Bacterial cytotoxicity", "assay_type": "cell-based", "text": "Data S2. Bacterial cytotoxicity of A41.\nTest Concentration %Effect Cytotoxicity (% of control)"}, "[8]": {"biological_target": "DYRK1A(h) (Homo sapiens, UniProt Q13627)", "assay": "Kinase Profiler", "assay_type": "biochemical", "experimental": "as §2"}, "[9]": {"biological_target": "BTK(h) (Homo sapiens, UniProt Q06187)", "sequence (Q06187 whole entry)": "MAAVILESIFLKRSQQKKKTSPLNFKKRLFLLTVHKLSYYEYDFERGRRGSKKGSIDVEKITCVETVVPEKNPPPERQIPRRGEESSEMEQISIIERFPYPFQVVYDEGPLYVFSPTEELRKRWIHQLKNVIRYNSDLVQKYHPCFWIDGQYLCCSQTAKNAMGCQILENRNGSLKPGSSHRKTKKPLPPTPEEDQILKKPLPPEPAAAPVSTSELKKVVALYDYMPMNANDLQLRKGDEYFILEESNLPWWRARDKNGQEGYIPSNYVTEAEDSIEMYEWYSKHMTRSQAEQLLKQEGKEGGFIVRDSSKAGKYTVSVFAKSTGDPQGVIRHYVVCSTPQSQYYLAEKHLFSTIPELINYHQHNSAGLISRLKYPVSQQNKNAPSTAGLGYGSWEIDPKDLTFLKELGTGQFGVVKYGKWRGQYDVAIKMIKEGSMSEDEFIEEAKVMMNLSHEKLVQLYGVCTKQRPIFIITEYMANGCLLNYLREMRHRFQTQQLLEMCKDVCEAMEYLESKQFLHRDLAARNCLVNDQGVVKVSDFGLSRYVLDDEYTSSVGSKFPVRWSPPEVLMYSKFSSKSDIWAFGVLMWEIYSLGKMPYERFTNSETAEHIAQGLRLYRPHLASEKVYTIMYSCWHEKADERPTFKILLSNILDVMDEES", "assay": "Kinase Profiler", "assay_type": "biochemical", "experimental": "as §2"}, "[10]": {"biological_target": "Rsk4(h) (Homo sapiens, UniProt Q9UK32)", "sequence (Q9UK32 whole entry)": "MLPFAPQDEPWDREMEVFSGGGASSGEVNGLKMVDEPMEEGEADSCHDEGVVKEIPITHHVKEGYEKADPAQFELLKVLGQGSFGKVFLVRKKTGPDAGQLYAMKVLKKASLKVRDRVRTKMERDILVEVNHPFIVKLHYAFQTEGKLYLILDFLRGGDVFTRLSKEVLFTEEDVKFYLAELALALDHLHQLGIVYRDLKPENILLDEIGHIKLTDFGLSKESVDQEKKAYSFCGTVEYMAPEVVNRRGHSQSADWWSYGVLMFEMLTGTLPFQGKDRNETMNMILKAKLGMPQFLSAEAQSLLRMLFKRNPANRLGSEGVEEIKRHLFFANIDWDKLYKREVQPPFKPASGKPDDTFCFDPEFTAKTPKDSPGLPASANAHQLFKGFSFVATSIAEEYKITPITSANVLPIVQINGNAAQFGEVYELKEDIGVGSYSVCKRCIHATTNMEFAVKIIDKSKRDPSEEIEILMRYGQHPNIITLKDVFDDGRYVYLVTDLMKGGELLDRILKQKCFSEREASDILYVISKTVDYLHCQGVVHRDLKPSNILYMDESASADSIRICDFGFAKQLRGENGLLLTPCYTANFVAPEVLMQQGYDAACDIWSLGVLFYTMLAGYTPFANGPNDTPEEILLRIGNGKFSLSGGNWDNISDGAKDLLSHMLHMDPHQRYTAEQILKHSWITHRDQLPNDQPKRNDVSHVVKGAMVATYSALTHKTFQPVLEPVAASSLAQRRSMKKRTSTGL", "assay": "Kinase Profiler", "assay_type": "biochemical", "experimental": "as §1"}, "[11]": {"test_system": "Transporter, Adenosine", "assay": "Safety screen", "assay_type": "binding, guinea pig", "experimental": "(§3) Blood cell counts, kinase profiler, safety screen, bacterial cytotoxicity, Ames, micronucleus assays were performed by the company Eurofins (France)."}, "[12]": {"biological_target": "MRCKγ(h) (Homo sapiens, UniProt Q6DT37)", "assay": "Kinase Profiler", "assay_type": "biochemical", "experimental": "as §1"}, "[13]": {"biological_target": "Glucocorticoid (Homo sapiens, UniProt P04150)", "assay": "Safety screen", "assay_type": "binding", "experimental": "as §3"}, "[14]": {"test_system": "Phosphodiesterase PDE3", "assay": "Safety screen", "assay_type": "biochemical, human", "experimental": "as §3"}}, "note": "Several values for one entry are separate records, joined by “and”; a condition that tells them apart may be missing. Equal values may be shown once."}
{"smiles": "COc1ccc(OC)c(NS(=O)(=O)c2ccc(NC(=O)CCSc3ccc(C)cc3)cc2)c1", "note": "[Compound A41]", "values": [{"measurement": "Activity(%)", "setting": "[1]", "value": 80, "unit": "%"}, {"measurement": "Activity(%)", "setting": "[2]", "value": 86, "unit": "%"}, {"measurement": "% inh.", "setting": "[3]", "value": -16, "unit": "%"}, {"measurement": "Activity(%)", "setting": "[4]", "value": 105, "unit": "%"}, {"measurement": "Activity(%)", "setting": "[5]", "value": 100, "unit": "%"}, {"measurement": "Activity(%)", "setting": "[6]", "value": 95, "unit": "%"}, {"measurement": "%Effect, single replicates (1st, 2nd, 3rd)", "setting": "[7]; - S9, 1.0E-04 M", "value": "154.6% and 177.5% and 143.7%"}, {"measurement": "Cytotoxicity (% of control), Mean %Effect", "setting": "[7]; - S9, 1.0E-04 M", "value": 158.6, "unit": "%"}, {"measurement": "%Effect, single replicates (1st, 2nd, 3rd)", "setting": "[7]; - S9, 1.0E-05 M", "value": "82.4% and 76.9% and 77.8%"}, {"measurement": "Cytotoxicity (% of control), Mean %Effect", "setting": "[7]; - S9, 1.0E-05 M", "value": 79.0, "unit": "%"}, {"measurement": "%Effect, single replicates (1st, 2nd, 3rd)", "setting": "[7]; - S9, 1.2E-06 M", "value": "89.7% and 74.1% and 55.8%"}, {"measurement": "Cytotoxicity (% of control), Mean %Effect", "setting": "[7]; - S9, 1.2E-06 M", "value": 73.2, "unit": "%"}, {"measurement": "%Effect, single replicates (1st, 2nd, 3rd)", "setting": "[7]; - S9, 2.5E-05 M", "value": "95.2% and 92.4% and 83.3%"}, {"measurement": "Cytotoxicity (% of control), Mean %Effect", "setting": "[7]; - S9, 2.5E-05 M", "value": 90.3, "unit": "%"}, {"measurement": "%Effect, single replicates (1st, 2nd, 3rd)", "setting": "[7]; - S9, 2.5E-06 M", "value": "80.5% and 83.3% and 82.4%"}, {"measurement": "Cytotoxicity (% of control), Mean %Effect", "setting": "[7]; - S9, 2.5E-06 M", "value": 82.0, "unit": "%"}, {"measurement": "%Effect, single replicates (1st, 2nd, 3rd)", "setting": "[7]; - S9, 5.0E-05 M", "value": "88.8% and 83.3% and 75.9%"}, {"measurement": "Cytotoxicity (% of control), Mean %Effect", "setting": "[7]; - S9, 5.0E-05 M", "value": 82.7, "unit": "%"}, {"measurement": "%Effect, single replicates (1st, 2nd, 3rd)", "setting": "[7]; - S9, 5.0E-06 M", "value": "88.8% and 84.2% and 81.4%"}, {"measurement": "Cytotoxicity (% of control), Mean %Effect", "setting": "[7]; - S9, 5.0E-06 M", "value": 84.8, "unit": "%"}, {"measurement": "%Effect, single replicates (1st, 2nd, 3rd)", "setting": "[7]; - S9, 6.0E-07 M", "value": "92.4% and 82.4% (2×)"}, {"measurement": "Cytotoxicity (% of control), Mean %Effect", "setting": "[7]; - S9, 6.0E-07 M", "value": 85.7, "unit": "%"}, {"measurement": "Activity(%)", "setting": "[8]", "value": 93, "unit": "%"}, {"measurement": "Activity(%)", "setting": "[9]", "value": 117, "unit": "%"}, {"measurement": "Activity(%)", "setting": "[10]", "value": 128, "unit": "%"}, {"measurement": "% inh.", "setting": "[11]", "value": 37, "unit": "%"}, {"measurement": "Activity(%)", "setting": "[12]", "value": 97, "unit": "%"}, {"measurement": "% inh.", "setting": "[13]", "value": 17, "unit": "%"}, {"measurement": "% inh.", "setting": "[14]", "value": 9, "unit": "%"}]}
